Source: patent US8663646B2, “P53 peptide vaccine” (priority 2007, dated 2014)

Assays:
proteasome = experiment: Proteasome processing, summarised over proteasome types (Table 5); format: biochemical; details: 30 residue long precursor peptides
Description: In the context of the invention, “being inefficiently processed by a proteasome” preferably means that within the first hour of digestion by a proteasome less than 1% of total digested peptide is found. The processing by a proteasome is preferably assessed by incubating a purified proteasome, more preferably a human proteasome with a peptide comprising the potential CTL epitope (30 amino acid length approximately) in a proteasome digestion buffer during at least one hour at 37° C. The reaction is subsequently stopped by adding trifluoroacetic acid. Analysis of the digested peptides is performed with electrospray ionization mass spectrometry (see example 1). Even more preferably, the human proteasome is an immunoproteasome from B-LCL JY cells (Kessler J H et al. 2001).
20S immuno-proteasomes were purified from a mouse B-cell line (RMA) and a human B-LCL cell line (JY) and 20S household proteasomes were purified from human tumor cell line (HeLa) as described (Kessler J H et al 2001). To assess kinetics, digestions were performed with different incubation periods as indicated. Briefly, peptides containing the (potential) CTL epitopes (30 mers, 20 μg) were incubated with 1 μg of purified proteasome at 37° C. for 1 h, 4 h and 24 h in 300 μl proteasome digestion buffer, trifluoroacetic acid (30 μl) was added to stop the digestion and samples were stored at −20° C. before mass spectrometric analysis. Electrospray ionization mass spectrometry was performed on a hybrid quadrupole time-of-flight mass spectromter, a Q-TOF (Micromass), equipped with an on-line nanoelectrospray interface with an approximate flow rate of […] as described (Kessler J H et al 2001). The peaks in the mass spectrum were searched in the digested precursor peptide using the Biolynx/proteins software (Micromass) supplied with the mass spectrometer. The intensity of the peaks in the mass spectra was used to establish the relative amounts of peptides generated after proteasome digestion. The relative amounts of the peptides are given as a percentage of the total amount of peptide digested by the proteasome at the indicated incubation time. Major cleavage sites are defined as more than >1% of total digested peptide within the first hour.

HLA-A*0201 [1] = target: T1, HLA-A*0201 (Homo sapiens, UniProt P04439, D140Y/D185E/D98H/E176V/E277Q/G131W/G231S/I119V/I121R/I166T/I218V/L300P/L318F/N151K/N90K/P208A/P217A/Q86G/Q94H/R138H/R169H/T345S); experiment: Peptide stabilization for HLA-A*0201; format: binding; details: HLA-A*0201; p53 peptides
HLA-A*0201 [2] = target: T1, HLA-A*0201; details: binding capacity previously determined; cited from earlier work

Peptide Binding Stability (HLA-A*0201 [1]): 6 h
Compound: CSCC[C@H](NC(=O)[C@@H](N)CCCNC(=N)N)C(=O)N1CCC[C@H]1C(=O)N[C@@H](CCC(=O)O)C(=O)N[C@@H](C)C(=O)N[C@@H](C)C(=O)N1CCC[C@H]1C(=O)N1CCC[C@H]1C(=O)N[C@H](C(=O)O)C(C)C [p53 65-73]
generation / processing by household and immunoproteasomes, in words (proteasome): not/inefficiently processed
Peptide Binding Affinity (HLA-A*0201 [2]): high
